Test results from article PMC11071266, “The putative proton-coupled organic cation antiporter is involved in uptake of triptans into human brain capillary endothelial cells” (Fluids and Barriers of the CNS, 2024).
Read-outs that look alike come from different tables or passages of the source. Each block holds one compound with its values, some of them ahead of it.

Tests used:
[1] = Physicochemical properties extracted from databases
Excerpt: Triptans are a relatively homogeneous group of drug compounds with similar physicochemical properties, including molecular weights < 400 g/mol and a low to moderate lipophilicity (cLogD values ranging from − 2.1–0.18). […] As a consequence, it is unlikely that triptans cross the brain microvascular endothelium through passive diffusion to a clinically relevant extent. Table 1 summarizes structures and physicochemical properties of the triptans, as well as oxycodone and pyrilamine, which are two prototypical H^+/OC antiporter substrates included in this study.

H^+/OC antiporter [2] = test: Inhibition of [^3H]-pyrilamine uptake into hCMEC/D3 cells; assay type: cell-based, human
Experimental: (§1) The immortalized human cerebral microvascular endothelial cell line (hCMEC/D3) was maintained in T75-flasks coated with collagen type I from calf skin (C9791, 18.7 μg/mL) and cultured in EBM®-2 medium (Lonza, Basel, Schweiz) supplemented with 5% (v/v) fetal bovine serum (FBS, 10270, Life Technologies, CA, USA or SH3008803, ThermoFisher Scientific, MA, USA), 100 U/mL penicillin and 100 μg/ml streptomycin, 1 ng/mL human basic fibroblast growth factor (bFGF), 1.4 μM hydrocortisone, 1% (v/v) chemically defined lipid concentrate (ThermoFisher Scientific, MA, USA), 10 mM N-2-hydroxyethylpiperazine-N-2-ethane sulfonic acid (HEPES) and 5 μg/mL ascorbic acid (5% CO2, 37 °C). […] For experiments, cells were seeded into 24-well plates (6.7·10^4 cells/cm^2) and cultured for four continuous days. The cells were used for experiments between passage 3–31.
(§2) The cells were equilibrated in hHBSS with or without inhibitor for 15 min (37 °C, 90 rpm). The compound of interest was spiked into the hHBSS followed by incubation for a designated time. The timeframe of the initial uptake rate was validated into hCMEC/D3 cells (Fig. 1 and Additional file 1). The experiment was terminated by washing three times with ice-cold HBSS supplemented with 0.0375% (v/v) sodium bicarbonate.
The inhibitory constant at 50% inhibition (IC50) was determined by fitting the uptake flux (Jss) as function of the logarithmic inhibitor concentration to Eq. 2.2 Jss=Jmin+(Jmax-Jmin)/1+10^logIC50-InH where [I] is the inhibitor concentration, nH is the Hill coefficient.
The hCMEC/D3 cells were used for [^3H]-pyrilamine inhibition studies between passage 3–6 (pyrilamine, oxycodone), 16–18 (almotriptan), 7–13 (eletriptan), 25–27 (frovatriptan), 3–8 (naratriptan), 16–18 (rizatriptan), 12–14 (sumatriptan), and 14–16 (zolmitriptan).
The cells were permeabilized using 0.1% (v/v) Triton X-100 in ultrapure water (ELGA, Buckinghamshire, England) for 10 min at room temperature. Thereafter, the cells were scraped off the bottom of the wells, transferred to scintillation vials, and mixed with 2 mL of Ultima Gold 241 TM (Perkin Elmer, MA, USA). The samples were analyzed using a Tri-Carb 2910 TR Liquid Scintillation Analyzer (Perkin Elmer, MA, USA).

H^+/OC antiporter [3] = test system: H^+/OC antiporter; set-up: method as in PMID 35955563; conditions: trans-stimulation in hCMEC/D3 cells; cited from earlier work
[4] = test system: organic cation transporter 1 (OCT1); set-up: method as in PMID 35955563; conditions: cited from earlier work
[5] = cited from earlier work
P-gp = test system: P-gp; set-up: method as in PMID 12814962; conditions: brain Kp in wild type and mdr1a knockout mice; cited from earlier work
H^+/OC antiporter [6] = test: Concentration-dependent cellular uptake into hCMEC/D3 cells (Michaelis-Menten kinetics); assay type: cell-based, human; conditions: for Km: read-out: Apparent Km
Experimental: as §1, §2
To assess the concentration-dependent uptake, the uptake flux was fitted to the Michaelis–Menten equation, Eq. 1.1 Jss=Jmax[S]/Km+[S] where Jss represents flux under steady state, Jmax is the maximal flux, [S] is the substrate concentration, and Km is the Michaelis–Menten constant.
The hCMEC/D3 cells were used for concentration-dependent uptake studies between passage 21–23 (pyrilamine), 11–13 (oxycodone), 12–14 (almotriptan), 16–18 (eletriptan), and 12–14 (sumatriptan).
(§3) The cells were permeabilized using 50% (v/v) acetonitrile (HPLC LC–MS grade, VWR International S.A.S, Soeborg, Denmark) in ultrapure water (ELGA, Buckinghamshire, England) for 10 min at room temperature. Thereafter, the cells were scraped off the bottom of the wells and transferred to HPLC vials. Samples from bidirectional transport experiments were transferred directly into HPLC vials. All samples were stored at – 18 °C for later analysis. Calibration curves with standards in the range of 1 or 5–1000 ng/mL were dissolved in 50% (v/v) acetonitrile in ultrapure water (ELGA, Buckinghamshire, England), or in hHBSS(-) for analysis of bidirectional transport samples.
(§4) Liquid chromatography tandem mass spectrometry (LC–MS/MS) were performed using electrospray ionization in positive mode on a micromass Quattro micro™ API tandem quadrupole mass spectrometer (Waters, MA, USA) or an Ultivo triple quadrupole mass spectrometer (Agilent Technologies, CA, USA) coupled to Agilent HPLC system 1100 Series or 1260 Series (Agilent Technologies, CA, USA California), respectively. Applied columns were an InfinityLab Poroshell 120 EC-C18 (3.0 × 50 mm; 2.7 micron, Agilent Technologies, CA, USA) or a Kinetex 2.6 μm XB-C18 (100 Å, 100 × 4.6 mm, Phenomenex Inc., CA, USA). An overview of applied HPLC and MS/MS parameters can be found in Additional file 2 and Additional file 3, respectively. The data acquisition software was MassLynx (V4.1, Waters, MA, USA).
The protein content of hCMEC/D3 cells was determined for normalization purposes. Cells were washed with ice-cold phosphate buffered saline following cell lysis in cell extraction buffer (FNN0011, Thermo Fisher Scientific, MA, USA) supplemented with 1 × cOmplete™ Protease Inhibitor Cocktail (04693116001, Roche, Basel, Schweiz), 1 mM phenylmethylsulfonyl fluoride, and […] for 30 min on ice.

H^+/OC antiporter [7] = test: Cellular uptake into hCMEC/D3 cells in absence or presence of pyrilamine or oxycodone; assay type: cell-based, human; conditions: for Inhibition by oxycodone (of the compound's uptake) / Inhibition by pyrilamine (of the compound's uptake): triptan 50 µM, asterisks = P level; for Inhibition by oxycodone (of the compound's uptake): 500 µM oxycodone; for Inhibition by pyrilamine (of the compound's uptake): 500 µM pyrilamine
Experimental: as §2
The hCMEC/D3 cells were used for time-dependent uptake studies between passage 3–5 (pyrilamine), 7–9 (oxycodone), 6–8 (almotriptan), and 24–31 (eletriptan).
The hCMEC/D3 cells were used for uptake studies of almotriptan, eletriptan, and sumatriptan in the presence of pyrilamine and oxycodone between passage 21–23.
as §3, §4

H^+/OC antiporter [8] = test: Cellular uptake into hCMEC/D3 cells after intra- and extracellular pH manipulation; assay type: cell-based, human; conditions: for Cellular uptake after intracellular alkalization: acute exposure to 30 mM NH4Cl vs control pH 7.4; for Cellular uptake at extracellular acidification: extracellular pH 6.8 vs pH 7.4; for Cellular uptake at extracellular alkalization: extracellular pH 8.2 vs pH 7.4; for Cellular uptake after intracellular acidification: preexposure to 30 mM NH4Cl followed by media change vs control
[9] = [^3H]-pyrilamine 1 µCi/mL, 48 nM, read-out: Apparent IC50 on [^3H]-pyrilamine uptake

Overall charge pH 7.4 [1]: Positive
Apparent IC50 on [^3H]-pyrilamine uptake (H^+/OC antiporter [2]; [^3H]-pyrilamine 1 µCi/mL, 48 nM): did not exhibit sufficient inhibition
Compound: CN[C@@H]1CCc2[nH]c3ccc(C(N)=O)cc3c2C1 [Frovatriptan]
H^+/OC antiporter substrate (H^+/OC antiporter [3]): did not appear to be H^+/OC antiporter substrate candidates
OCT1 substrate [4]: substrates of OCT1
cLogD pH 7.4 [5]: − 1.5

Overall charge pH 7.4 [1]: Positive
IC50 (H^+/OC antiporter [2]; [9]): 460 ± 41 µM
Compound: CNS(=O)(=O)CCc1ccc2[nH]cc(C3CCN(C)CC3)c2c1 [Naratriptan]
P-gp substrate (P-gp): substrates of P-gp
Strongest basic pKa ([5]; extracted from DrugBank): 9.2

Compound: CNS(=O)(=O)Cc1ccc2[nH]cc(CCN(C)C)c2c1 [Sumatriptan]
Overall charge pH 7.4 [1]: Positive
Concentration-dependent uptake (saturability) (H^+/OC antiporter [6]; hCMEC/D3 cells, tested concentration range): linear increase as function of increasing concentrations
Association with H^+/OC antiporter (H^+/OC antiporter [6]; summary of uptake and inhibition studies in hCMEC/D3 cells): (substrate) very poor inhibitor
Apparent Km (H^+/OC antiporter [6]; uptake into hCMEC/D3 cells): not saturable (in tested range)
IC50 (H^+/OC antiporter [2]; read-out: Apparent IC50 on [^3H]-pyrilamine uptake, [^3H]-pyrilamine 1 µCi/mL, 48 nM): 1460 ± 189 µM
Inhibition by oxycodone (of the compound's uptake) (H^+/OC antiporter [7]): yes (***)
Inhibition by oxycodone (of the compound's uptake) (H^+/OC antiporter [7]; listed as sumatriptan): inhibited the uptake of sumatriptan
Inhibition by pyrilamine (of the compound's uptake) (H^+/OC antiporter [7]): yes (**)
Inhibition by pyrilamine (of the compound's uptake) (H^+/OC antiporter [7]; listed as sumatriptan): inhibited the uptake of sumatriptan
Cellular uptake after intracellular alkalization (H^+/OC antiporter [8]): decreased
Cellular uptake at extracellular acidification (H^+/OC antiporter [8]): reduced
Cellular uptake at extracellular alkalization (H^+/OC antiporter [8]): increased
Proton-gradient dependence of uptake (H^+/OC antiporter [8]; hCMEC/D3 cells): yes
Cellular uptake after intracellular acidification (H^+/OC antiporter [8]): decreased uptake

Compound: COc1ccc(CN(CCN(C)C)c2ccccn2)cc1 [Pyrilamine]
Overall charge pH 7.4 [1]: Positive
Jmax (H^+/OC antiporter [6]; uptake into hCMEC/D3 cells): 5.1 ± 0.7 nmol·min^−1·mg protein^−1
Km (H^+/OC antiporter [6]; uptake into hCMEC/D3 cells, listed as pyrilamine): ~93 µM
Km (H^+/OC antiporter [6]; uptake into hCMEC/D3 cells): 93 ± 17 µM
IC50 (H^+/OC antiporter [2]; [^3H]-pyrilamine 1 µCi/mL, 48 nM, listed as pyrilamine, read-out: Apparent IC50 on [^3H]-pyrilamine uptake): ~11 µM
IC50 (H^+/OC antiporter [2]; [9]): 11 ± 6 µM
Time-dependent uptake in presence of 500 µM oxycodone (H^+/OC antiporter [7]; [^3H]-pyrilamine 48 nM): reduced
Cellular uptake after intracellular alkalization (H^+/OC antiporter [8]): reduced cellular uptake
Cellular uptake at extracellular acidification (H^+/OC antiporter [8]): reduced cellular uptake
Cellular uptake at extracellular alkalization (H^+/OC antiporter [8]): increased cellular uptake
Cellular uptake after intracellular acidification (H^+/OC antiporter [8]): increased cellular uptake
cLogD pH 7.4 [5]: 1.1
